Drawing on PMC12040169 (PLOS Biology, 2025), this text covers viability for 79 compounds.

The data set in a line: in vitro. As to conditions: human, hela cells, % viability.
For the compound `CCOC(=O)CCCCSc1c(CC)c(C)nc2ccccc12` [CBK153458T], the viability (in general, a read-out of living cells in per cent, often relative to untreated cells) at 28.5 h, 10 µM amounted to 96%.
Take `CCc1c(C)nc2ccccc2c1SC[C@H](NC(C)=O)C(=O)O` [CBK153459T]: the viability at 28.5 h, 10 µM stood at 99.2%.
As to `Cc1ccc(S(=O)(=O)Nc2ccc3[nH]ccc3c2)cc1` [CBK153519], the viability at 28.5 h, 10 µM is 92.5%.
Regarding `O=S(=O)(Nc1cccc2[nH]ccc12)c1ccc(F)cc1` [CBK153522], the viability at 28.5 h, 10 µM amounted to 60.9%.
`O=S(=O)(Nc1cccc2[nH]ccc12)c1sc(Cl)cc1Br` [CBK153552]: the viability at 28.5 h, 10 µM came to 69%.
As to `O=S(=O)(Nc1cccc2cc[nH]c12)c1cc(Cl)ccc1Cl` [CBK153581], the viability at 28.5 h, 10 µM is 84.6%.
With `O=S(=O)(CC(F)(F)F)Nc1cccc2cc[nH]c12` [CBK153585], the viability at 28.5 h, 10 µM stood at 99.5%.
The result for `O=S(=O)(Nc1cccc2cc[nH]c12)c1ccc(F)cc1F` [CBK153586] reads 85.3%; that for `N#CCCCN1CCC(Oc2nccnc2OCc2c(F)cccc2Cl)CC1` [CBK153630], 102%.
Take `N#CCCCN1CCC(Oc2nccnc2OCc2ccccc2C(F)(F)F)CC1` [CBK153636]: the viability at 28.5 h, 10 µM is 102%.
`N#CCCCN1CCC(Oc2nccnc2OCc2cccc(C(F)(F)F)c2F)CC1` [CBK153646]: the viability at 28.5 h, 10 µM was 100%.
With `CN(C)C(=O)c1ccc(Cn2ccnc(N3CCC(Sc4ccccc4)CC3)c2=O)cc1` [CBK153651], the viability at 28.5 h, 10 µM amounted to 107%.
On to `CN(C)C(=O)Cc1ccc(Cn2ccnc(N3CCC(Sc4ccccc4)CC3)c2=O)cc1` [CBK153652], for which the viability at 28.5 h, 10 µM was determined as 112%.
Then `N#Cc1ccc(Cn2ccnc(N3CCC(Sc4ccccc4)CC3)c2=O)cc1` [CBK153653], with 98.2%; and `O=c1c(N2CCC(Sc3ccccc3)CC2)nccn1Cc1ccc([N+](=O)[O-])cc1` [CBK153654], with 108%; and `O=c1c(N2CCC(Sc3ccccc3)CC2)nccn1Cc1ccc(-n2cncn2)cc1` [CBK153655], with 90.9%.
On to `CCOC(=O)c1c(C)nc2ccccc2c1O` [CBK153666], for which the viability at 28.5 h, 10 µM was determined as 110%.
Turning to `O=C(c1cnoc1-c1ccc(F)cc1)N1CCCC1` [CBK153707], the viability at 28.5 h, 10 µM turned out to be 97.9%.
On to `O=C(NCc1cccc(C(F)(F)F)c1)c1cnoc1-c1ccc(Br)cc1` [CBK153718], for which the viability at 28.5 h, 10 µM stood at 96.9%.
The result for `CS(=O)(=O)c1ccc(Cn2ccnc(N3CCN(C(=O)Cc4cccs4)CC3)c2=O)cc1` [CBK153773] reads 89.9%.
`CS(=O)(=O)c1ccc(Cn2ccnc(N3CCN(C(=O)c4ccc5occc5c4)CC3)c2=O)cc1` [CBK153777]: the viability at 28.5 h, 10 µM was 90.8%.
The result for `COC(=O)c1ccc(CN2CCC(Oc3nccnc3OCc3ccc(Cl)c(Cl)c3)CC2)o1` [CBK153782] reads 84.2%; that for `O=C(CN1CCC(Oc2nccnc2OCc2ccc(Cl)c(Cl)c2)CC1)Nc1ccccc1` [CBK153783], 110%.
On to `Cc1nc(CN2CCC(Oc3nccnc3OCc3ccc(Cl)c(Cl)c3)CC2)cs1` [CBK153787], for which the viability at 28.5 h, 10 µM came out at 95.9%.
Regarding `Clc1ccc(COc2nccnc2OC2CCN(Cc3ccncc3)CC2)cc1Cl` [CBK153792], the viability at 28.5 h, 10 µM amounted to 107%.
As to `O=C(NCc1cccs1)c1cnoc1-c1ccc([N+](=O)[O-])cc1` [CBK153845], the viability at 28.5 h, 10 µM was 82.9%.
With `O=C(OCc1ccccc1)N1CCC(c2nc3ccc(Br)cc3[nH]2)CC1` [CBK153849], the viability at 28.5 h, 10 µM is 93.7%.
As to `CCc1ccc(CNC(=O)Cn2nnc(-c3ccc(CN4CCC(C)CC4)cn3)n2)cc1` [CBK153928C], the viability at 28.5 h, 10 µM is 93.6%.
In the case of `CCOc1ccc(OC(=O)C2CCN(C(=O)CC(C)C)CC2)cc1` [CBK154228], the viability at 28.5 h, 10 µM is 95.3%.
With `O=S(=O)(CC(F)(F)F)Nc1cccc(-c2nnn[nH]2)c1` [CBK154272], the viability at 28.5 h, 10 µM came out at 83.9%.
Then `O=S(=O)(Nc1ccc(-c2nnn[nH]2)cc1)c1cc(Cl)c(Cl)s1` [CBK154745], with 116%.
As for `O=S(=O)(CC(F)(F)F)Nc1ccc(-c2nnn[nH]2)cc1` [CBK154754], the viability at 28.5 h, 10 µM was 107%.
On to `O=S(=O)(Nc1ccc(-c2nnn[nH]2)cc1)c1ccc(F)c(C(F)(F)F)c1` [CBK154759], for which the viability at 28.5 h, 10 µM stood at 96.9%.
In the case of `COc1ccc(OC(=O)C2CCN(C(=O)CC(C)C)CC2)c([N+](=O)[O-])c1` [CBK154770], the viability at 28.5 h, 10 µM amounted to 97.4%.
In the case of `COc1cccc(C(=O)N2CCN(C(=O)Nc3ccsc3)CC2)c1` [CBK154782], the viability at 28.5 h, 10 µM was 91.5%.
Consider `COc1cccc(C(=O)N2CCN(C(=O)Nc3ccccc3Br)CC2)c1` [CBK154783], for which the viability at 28.5 h, 10 µM was 94.4%.
For the compound `COc1cccc(C(=O)N2CCN(C(=O)Nc3ccc(C(F)(F)F)cc3)CC2)c1` [CBK154788], the viability at 28.5 h, 10 µM amounted to 96.4%.
For `O=C(NCC1CCOCC1)c1cc(-c2cccnc2)cnc1NCc1ccc2c(c1)OCO2` [CBK154825], the viability at 28.5 h, 10 µM was found to be 104%.
On to `Cc1ccc(CNCCn2nnc(-c3ccc(CN4CCC(C)CC4)cc3)n2)cc1` [CBK154882T], for which the viability at 28.5 h, 10 µM turned out to be 93.3%.
On to `O=C(NCc1ccc(OC(F)(F)F)cc1)c1cnoc1-c1ccc(Br)cc1` [CBK154885], for which the viability at 28.5 h, 10 µM amounted to 100%.
In the case of `Cc1cnc(CNC(=O)c2cnoc2-c2ccccc2)cn1` [CBK154926], the viability at 28.5 h, 10 µM came to 98%.
Consider `O=C(NCc1ccc(OC(F)(F)F)cc1)c1cnoc1-c1ccc(F)cc1` [CBK154952], for which the viability at 28.5 h, 10 µM amounted to 100%.
Take `O=C(NCc1ccco1)c1cnoc1-c1ccc(F)cc1` [CBK154960]: the viability at 28.5 h, 10 µM stood at 116%.
Turning to `CNC(=O)c1c(C)nc2ccccc2c1SCCC(=O)O` [CBK154987T], the viability at 28.5 h, 10 µM was 101%.
For `CS(=O)(=O)c1ccc(CN2C(=O)CC3(CCN(C(=O)Cc4cccs4)CC3)C2=O)cc1` [CBK155013], the viability at 28.5 h, 10 µM was determined as 100%.
Regarding `CC(C)(C)c1ccc(C(=O)N2CCC3(CC2)CC(=O)N(Cc2ccc(S(C)(=O)=O)cc2)C3=O)cc1` [CBK155018], the viability at 28.5 h, 10 µM turned out to be 106%.
Consider `COc1cccc(C(=O)N2CCC(NC(=O)Cc3ccc(F)cc3)CC2)c1` [CBK155027], for which the viability at 28.5 h, 10 µM came to 85%.
With `O=S(=O)(Nc1cccc(-c2nnn[nH]2)c1)c1sc(Cl)cc1Br` [CBK155035], the viability at 28.5 h, 10 µM turned out to be 94.6%.
The result for `CS(=O)(=O)c1ccc(-c2ccc(OC3CCN(C(=O)CCCc4ccc(F)cc4)CC3)nc2)cc1` [CBK155044] reads 94.8%; that for `CN(C)C(=O)c1ccc(-c2ccc(OC3CCN(C(=O)CC(C)(C)c4ccccc4)CC3)nc2)cc1` [CBK155047], 101%; that for `CN(C)C(=O)c1ccc(-c2ccc(OC3CCN(C(=O)CCC(=O)N4CCCC4)CC3)nc2)cc1` [CBK155051], 108%.
On to `O=C(O)c1cccc(NS(=O)(=O)c2ccc(OC(F)(F)F)cc2)c1` [CBK155077], for which the viability at 28.5 h, 10 µM worked out at 92.7%.
In the case of `Cn1nc(-c2ccc(S(=O)(=O)Nc3cccc(C(=O)O)c3)s2)cc1C(F)(F)F` [CBK155080], the viability at 28.5 h, 10 µM turned out to be 86.9%.
`O=C(O)c1cccc(NS(=O)(=O)c2ccc(CNC(=O)c3ccc(Cl)cc3)s2)c1` [CBK155085]: the viability at 28.5 h, 10 µM amounted to 104%.
For the compound `CN(C)CCN(Cc1ccccc1)C(=O)NCc1c(Cl)cccc1Cl` [CBK155107], the viability at 28.5 h, 10 µM stood at 97.3%.
In the case of `CCN(Cc1ccncc1)C(=O)NCCCSC` [CBK155125], the viability at 28.5 h, 10 µM was 88.8%.
Regarding `CCN(Cc1ccncc1)C(=O)NCc1cnc(C)cn1` [CBK155128], the viability at 28.5 h, 10 µM worked out at 105%.
With `CCN(Cc1ccncc1)C(=O)Nc1ccc(N(CC)CC)cc1` [CBK155141], the viability at 28.5 h, 10 µM was 90.3%.
The result for `CCN(Cc1ccncc1)C(=O)NCCOc1ccccc1` [CBK155148] reads 100%.
Turning to `CCN(Cc1ccncc1)C(=O)NCCc1ccc(OC)cc1` [CBK155149], the viability at 28.5 h, 10 µM is 94.6%.
For `CN1CCN(CCCNC(=O)N2CCN(c3ccccc3)CC2)CC1` [CBK155168], the viability at 28.5 h, 10 µM is 101%.
Then `Cc1cnc(CNC(=O)N2CCN(c3ccccc3)CC2)cn1` [CBK155174], with 101%; and `O=C(NCc1cccc2ccccc12)N1CCN(c2ccccc2)CC1` [CBK155175], with 89.1%; and `O=C(NC(c1ccccc1)c1ccccc1)N1CCN(c2ccccc2)CC1` [CBK155177], with 90.7%.
`O=C(NCCN1CCOCC1)N1CCN(c2ccccc2)CC1` [CBK155180]: the viability at 28.5 h, 10 µM was determined as 83.8%.
Then `COCCNC(=O)N1CCN(c2ccccc2)CC1` [CBK155181], with 96.1%; and `O=C(Nc1ccc2c(c1)OCCO2)N1CCN(c2ccccc2)CC1` [CBK155187], with 94.7%.
Take `O=C(NCc1ccc(Cl)cc1)N1CCN(c2ccccc2)CC1` [CBK155193]: the viability at 28.5 h, 10 µM is 97.9%.
For the compound `O=C(NCC(c1ccccc1)c1ccccc1)N1CCN(c2ccccc2)CC1` [CBK155197], the viability at 28.5 h, 10 µM is 89.8%.
Regarding `O=C(NCCOc1ccccc1)N1CCN(c2ccccc2)CC1` [CBK155198], the viability at 28.5 h, 10 µM is 88.5%.
As for `COc1ccc(CCNC(=O)N2CCN(c3ccccc3)CC2)cc1` [CBK155199], the viability at 28.5 h, 10 µM was determined as 96.8%.
As to `CCN(CC)CCNC(=O)N1CCN(c2ccccc2)CC1` [CBK155202], the viability at 28.5 h, 10 µM turned out to be 116%.
On to `CC(C)CCNC(=O)N1CCN(c2ccccc2)CC1` [CBK155203], for which the viability at 28.5 h, 10 µM turned out to be 101%.
The result for `CC(NC(=O)N1CCN(c2ccccc2)CC1)c1ccccc1` (stereo not shown) [CBK155207] reads 99.3%; that for `CCN(Cc1ccccc1)C(=O)NCCCN1CCN(C)CC1` [CBK155212], 102%.
Take `CCN(Cc1ccccc1)C(=O)NCCCSC` [CBK155214]: the viability at 28.5 h, 10 µM turned out to be 94.3%.
Regarding `CCN(Cc1ccccc1)C(=O)NCc1cnc(C)cn1` [CBK155218], the viability at 28.5 h, 10 µM came out at 107%.
As for `CCN(Cc1ccccc1)C(=O)NCCc1c[nH]cn1` [CBK155220], the viability at 28.5 h, 10 µM turned out to be 92.8%.
For the compound `CCN(Cc1ccccc1)C(=O)NCCc1c[nH]c2ccc(OC)cc12` [CBK155226], the viability at 28.5 h, 10 µM worked out at 87%.
